Activity calls are given as the source filed them. No cut-off for these calls is given here.
Experiments:
SW480 [1] = assay: Induction of apoptosis in human SW480 cells assessed as late apoptotic cells at 16 uM incubated for 48 hrs by Annexin V-FITC/PI staining based flow cytometry (reference value: 4.67%); type: functional
SW480 [2] = assay: Induction of apoptosis in human SW480 cells assessed as necrotic cells at 2 uM incubated for 48 hrs by Annexin V-FITC/PI staining based flow cytometry (reference value: 2.9%); type: functional
SW480 [3] = assay: Induction of mitochondrial membrane potential loss in human SW480 cells assessed as increase in cells with low MMP emitting green fluorescence at 2 to 8 uM incubated for 24 hrs by JC-1 staining based fluorescence microscopy; type: functional, cell-based; details: dose 2-8 µM
SW480 [4] = assay: Induction of apoptosis in human SW480 cells at 4 to 8 uM pretreated with pan-caspase inhibitor, Q-VD-OPh followed by incubation with compound for 48 hrs by Annexin V-FITC/PI staining based flow cytometry; type: functional, cell-based; details: dose 4-8 µM
HCT-116 [5] = assay: Antiproliferative activity against human HCT-116 cells assessed as reduction in cell viability incubated for 48 hrs by MTT assay; type: functional, cell-based; details: HCT-116, 48 h
SW480 [6] = assay: Induction of apoptosis in human SW480 cells assessed as increase in cleaved PARP protein expression at 2 to 16 uM incubated for 48 hrs by western blot analysis; type: functional, cell-based; details: dose 2-16 µM
SW480 [7] = assay: Induction of apoptosis in human SW480 cells assessed as viable cells at 16 uM incubated for 48 hrs by Annexin V-FITC/PI staining based flow cytometry (reference value: 90.56%); type: functional; details: read-out: Activity
[8] = Half life in mouse liver microsomes at 0.1 uM preincubated for 10 mins followed by NADPH addition and measured up to 60 mins by LC-MS/MS analysis; type: ADME, Microsome; details: time 70 min
SW480 [9] = assay: Antitumor activity against human SW480 cells xenografted in ip dosed BALB/c mouse assessed as reduction in tumor weight administered every 2 days for 12 days; type: functional, organism-based; details: dose 25-50 mg/kg, time 12.0 day
SW480 [10] = assay: Induction of apoptosis in human SW480 cells assessed as necrotic cells at 4 uM incubated for 48 hrs by Annexin V-FITC/PI staining based flow cytometry (reference value: 2.9%); type: functional
[11] = Acute toxicity in BALB/c mouse assessed as animal survival at 150 mg/kg, ip administered per 4 hrs for 4 times and measured everyday for 14 days (Rb =100%); type: organism-based; details: in vivo, time 14 day
SW480 [12] = assay: Induction of apoptosis in human SW480 cells assessed as reduction in Bcl-xl protein expression at 2 to 16 uM incubated for 48 hrs by western blot analysis; type: functional, cell-based; details: dose 2-16 µM
SW480 [13] = assay: Induction of mitochondrial membrane potential loss in human SW480 cells assessed as cells with high MMP emitting red fluorescence at 2 uM incubated for 24 hrs by JC-1 staining based flow cytometry (reference value: 64.2%); type: functional
SW480 [14] = assay: Antitumor activity against human SW480 cells xenografted in BALB/c mouse assessed as reduction in tumor necrosis at 25 to 50 mg/kg, ip administered every 2 days for 12 days by hematoxyin-eosin staining based analysis; type: functional, organism-based; details: dose 25-50 mg/kg, time 12.0 day
SW480 [15] = assay: Induction of apoptosis in human SW480 cells assessed as increase in Bax protein expression at 2 to 16 uM incubated for 48 hrs by western blot analysis; type: functional, cell-based; details: dose 2-16 µM
HCT-116 [16] = assay: Inhibition of colony formation in human HCT-116 cells at >=16 uM incubated for 48 hrs followed by culture medium replenishment for every 72 hrs and measured after 14 days by crystal violet staining based analysis; type: functional; details: dose microM >=16; time 14 day
SW480 [17] = assay: Induction of apoptosis in human SW480 cells assessed as viable cells at 4 uM incubated for 48 hrs by Annexin V-FITC/PI staining based flow cytometry (reference value: 90.56%); type: functional; details: read-out: Activity
SW480 [18] = assay: Induction of apoptosis in human SW480 cells assessed as early apoptotic cells at 16 uM incubated for 48 hrs by Annexin V-FITC/PI staining based flow cytometry (reference value: 1.87%); type: functional
[19] = Acute toxicity in BALB/c mouse assessed as animal survival at 100 mg/kg, ip administered per 4 hrs for 4 times and measured everyday for 14 days (Rb =100%); type: organism-based; details: in vivo, time 14 day
SW480 [20] = assay: Induction of apoptosis in human SW480 cells assessed as early apoptotic cells at 2 uM incubated for 48 hrs by Annexin V-FITC/PI staining based flow cytometry (reference value: 1.87%); type: functional
HCT-116 [21] = assay: Induction of cell cycle arrest in human HCT-116 cells assessed as accumulation at G0/G1 phase at 16 uM incubated for 24 hrs by propidium iodide staining based flow cytometry; type: functional
SW480 [22] = assay: Induction of mitochondrial membrane potential loss in human SW480 cells assessed as cells with low MMP emitting green fluorescence at 2 uM incubated for 24 hrs by JC-1 staining based flow cytometry (reference value: 17.96%); type: functional
SW480 [23] = assay: Induction of mitochondrial membrane potential loss in human SW480 cells assessed as cells with low MMP emitting green fluorescence at 4 uM incubated for 24 hrs by JC-1 staining based flow cytometry (reference value: 17.96%); type: functional
SW480 [24] = assay: Induction of apoptosis in human SW480 cells assessed as early apoptotic cells at 32 uM incubated for 48 hrs by Annexin V-FITC/PI staining based flow cytometry (reference value: 1.87%); type: functional
HCT-116 [25] = assay: Induction of apoptosis in human HCT-116 cells at 32 uM incubated for 48 hrs by Annexin V-FITC/PI staining based flow cytometry (reference value: 12%); type: functional
[26] = Acute toxicity in BALB/c mouse assessed as animal survival at 300 mg/kg, ip administered per 4 hrs for 4 times and measured everyday for 14 days (reference value: 100%); type: organism-based; details: in vivo, time 14 day
SW480 [27] = assay: Induction of mitochondrial membrane potential loss in human SW480 cells assessed as cells with low MMP emitting green fluorescence at 8 uM incubated for 24 hrs by JC-1 staining based flow cytometry (reference value: 17.96%); type: functional
SW480 [28] = assay: Induction of apoptosis in human SW480 cells assessed as necrotic cells at 16 uM incubated for 48 hrs by Annexin V-FITC/PI staining based flow cytometry (reference value: 2.9%); type: functional
SW480 [29] = assay: Induction of apoptosis in human SW480 cells assessed as necrotic cells at 32 uM incubated for 48 hrs by Annexin V-FITC/PI staining based flow cytometry (reference value: 2.9%); type: functional
SW480 [30] = assay: Potency index, ratio of 5-FU IC50 to test compound IC50 for antiproliferative activity against human SW480 cells; type: functional
SW480 [31] = assay: Inhibition of colony formation in human SW480 cells at >=16 uM incubated for 48 hrs followed by culture medium replenishment for every 72 hrs and measured after 14 days by crystal violet staining based analysis; type: functional; details: dose microM >=16; time 14 day
SW480 [32] = assay: Induction of apoptosis in human SW480 cells assessed as early apoptotic cells at 4 uM incubated for 48 hrs by Annexin V-FITC/PI staining based flow cytometry (reference value: 1.87%); type: functional
SW480 [33] = assay: Induction of mitochondrial membrane potential loss in human SW480 cells assessed as cells with high MMP emitting red fluorescence at 8 uM incubated for 24 hrs by JC-1 staining based flow cytometry (reference value: 64.2%); type: functional
SW480 [34] = assay: Induction of apoptosis in human SW480 cells assessed as early apoptotic cells at 8 uM incubated for 48 hrs by Annexin V-FITC/PI staining based flow cytometry (reference value: 1.87%); type: functional

CCCCCCCCCC(CCO)n1cnc2c(Cl)ncnc21 (racemic)
Activity (SW480 [1]): 20.5% | Activity (SW480 [2]): 9.2% | Activity (SW480 [3]): Active | Activity (SW480 [4]): Active | IC50 (HCT-116 [5]): 890 nM | Activity (SW480 [6]): Active | viability at 16 µM (SW480 [7]): 44% | half-life at 0.1 µM [8]: 1 min | Activity (SW480 [9]): Dose-Dependent Effect | Activity (SW480 [10]): 7.76% | survival at 336 h [11]: 100% | Activity (SW480 [12]): Active | Activity (SW480 [13]): 47.58% | Activity (SW480 [14]): Active | Activity (SW480 [15]): Active | inhibition (INH) (HCT-116 [16]): 100% | viability at 4 µM (SW480 [17]): 71.5% | Activity (SW480 [18]): 24.5% | survival at 336 h [19]: 100% | Activity (SW480 [20]): 5.2% | Activity (HCT-116 [21]): Active | Activity (SW480 [22]): 28.88% | Activity (SW480 [23]): 33.02% | Activity (SW480 [24]): 55.55% | Activity (HCT-116 [25]): 66% | survival at 336 h [26]: 0% | Activity (SW480 [27]): 36.6% | Activity (SW480 [28]): 11.01% | Activity (SW480 [29]): 3.89% | Ratio IC50 (SW480 [30]): 10 | inhibition (INH) (SW480 [31]): 100% | Activity (SW480 [32]): 11.67% | Activity (SW480 [33]): 31.56% | Activity (SW480 [34]): 11.03%
